Test results from patent publication US10280175B2, “Hepatitis B antiviral agents” (Enanta Pharmaceuticals, Inc., priority 2016, dated 2019).

Test system: HBV in HepAD38 cells
Test: HepAD38 cell antiviral assay (reduction of viral product accumulation)
Format: cell-based
Settings: Hepatitis B virus, concentration reducing viral product accumulation by 50% relative to no drug controls
Procedure: Methods: HepAD38 cells are maintained as previously reported (Ladner et al, Antimicrob. Agents Chemother. 1997, […], 1715). Briefly, cells are passaged upon attaining confluency in DMEM/F12 media in the presence of 10% FBS, Penn/Strep, 250 μg/mL G418, and 1 ug/ml tetracycline. Novel compounds are screened by first washing cells three times with PBS to remove tetracycline, and plating in 96 well plates at 35,000 cells/well. Compounds dissolved in DMSO are then diluted 1:200 into wells containing cells. Five days after compound addition, material is harvested for analysis. For an extended 8 day analysis, cells are plated and treated as described above, but media and compound are refreshed on d2 and d5 post initial treatment.
On harvest day, virion DNA is obtained by lysing with Sidestep Lysis and Stabilization Buffer and then quantified via quantitative real time PCR. Commercially available ELISA kits are used to quantitate the viral proteins HBsAg (Alpco) or HBeAg (US Biological) by following the manufacturer's recommended protocol after diluting samples to match the linear range of their respective assays. Irrespective of readout, compound concentrations that reduce viral product accumulation in the cell lysates or supernatants by 50% relative to no drug controls (EC50) are reported; EC50 ranges are as follows: A<1 μM; B 1-10 μM; C>10 μM.

O=S(=O)(c1cc(-c2ncc(-c3ccc(Br)c(F)c3)[nH]2)ccc1Cl)N1CC2(COC2)C1 [Example 22]
EC50: 1 to 10 µM

O=S(=O)(c1cc(-c2ncc(-c3ccc(C(F)(F)F)c(C4CC4)c3)[nH]2)ccc1Cl)N1C2CC[C@@H]1C[C@H](O)C2 [Example 12]
EC50: < 1 µM

O=C(Nc1cc(F)c(F)c(F)c1)c1ccc(Cl)c(S(=O)(=O)N2C3CCC2CC(O)(CO)C3)c1 (stereo not drawn) [Example 18]
EC50: < 1 µM

O=S(=O)(c1cc(-c2ncc(-c3ccc(Br)c(F)c3)[nH]2)ccc1Cl)N1C2CC[C@@H]1C[C@H](O)C2 [Example 1]
EC50: < 1 µM

O=S(=O)(c1cc(C(Nc2cc(F)c(F)c(F)c2)C(F)(F)F)ccc1Cl)N1C2CC[C@@H]1CC(O)C2 (stereo partly drawn) [Example 23]
EC50: > 10 µM

O=C(Nc1cc(F)c(F)c(F)c1)c1ccc(Cl)c(S(=O)(=O)N2CCC3(CC2)COC3)c1 [Example 20]
EC50: 1 to 10 µM

O=C(Nc1cc(F)c(F)c(F)c1)c1ccc(Cl)c(S(=O)(=O)N2C3CCC2CC(CO)C3)c1 (stereo not drawn) [Example 19]
EC50: < 1 µM

O=S(=O)(c1cc(-c2ncc(-c3ccc(Cl)c(C(F)(F)F)c3)[nH]2)ccc1Cl)N1C2CC[C@@H]1C[C@H](O)C2 [Example 14]
EC50: < 1 µM

O=C(Nc1ccc(Br)c(F)c1)c1ccc(Cl)c(S(=O)(=O)N2C3CC[C@@H]2C[C@H](O)C3)c1 [Example 8]
EC50: 1 to 10 µM

O=S(=O)(c1cc(-c2ncc(-c3ccc(Cl)c(C4CC4)c3)[nH]2)ccc1Cl)N1C2CC[C@@H]1C[C@H](O)C2 [Example 11]
EC50: < 1 µM

O=C(Nc1cc(F)c(F)c(F)c1)c1ccc(Cl)c(S(=O)(=O)N2CCC(O)C3(CC3)C2)c1 (stereo not drawn) [Example 9]
EC50: < 1 µM

C[C@H](NC(=O)OC(C)(C)C)C(=O)O[C@@H]1CC2CC[C@H](C1)N2S(=O)(=O)c1cc(-c2ncc(-c3ccc(Br)c(F)c3)[nH]2)ccc1Cl [Example 3]
EC50: < 1 µM

O=S(=O)(c1cc(-c2ncc(-c3ccc(C4CC4)c(C(F)(F)F)c3)[nH]2)ccc1Cl)N1C2CC[C@@H]1C[C@H](O)C2 [Example 15]
EC50: 1 to 10 µM

O=C(Nc1cc(F)c(F)c(F)c1)c1ccc(Cl)c(S(=O)(=O)N2C3CC[C@@H]2C[C@H](O)C3)c1 [Example 6]
EC50: < 1 µM

O=S(=O)(c1cc(-c2ncc(-c3ccc(C(F)(F)F)c(Cl)c3)[nH]2)ccc1Cl)N1C2CC[C@@H]1C[C@H](O)C2 [Example 13]
EC50: < 1 µM

O=C1CC2CCC(C1)N2S(=O)(=O)c1cc(C(=O)Nc2cc(F)c(F)c(F)c2)ccc1Cl [Example 16]
EC50: < 1 µM

O=S(=O)(c1cc(C2(Nc3cc(F)c(F)c(F)c3)COC2)ccc1Cl)N1C2CC[C@@H]1CC(O)C2 (stereo partly drawn) [Example 24]
EC50: > 10 µM

O=S(=O)(c1cc(-c2ncc(-c3ccc(Br)c(F)c3)[nH]2)ccc1Cl)N1CCC(O)C2(CC2)C1 (stereo not drawn) [Example 5]
EC50: < 1 µM

O=S(=O)(c1cc(-c2ncc(-c3ccc(C4CC4)c(Cl)c3)[nH]2)ccc1Cl)N1C2CC[C@@H]1C[C@H](O)C2 [Example 10]
EC50: < 1 µM

C[C@H](N)C(=O)O[C@@H]1CC2CC[C@H](C1)N2S(=O)(=O)c1cc(-c2ncc(-c3ccc(Br)c(F)c3)[nH]2)ccc1Cl [Example 4]
EC50: < 1 µM

O=C(Nc1cc(F)c(F)c(F)c1)c1ccc(Cl)c(S(=O)(=O)N2C3CC[C@@H]2C[C@@H](O)C3)c1 [Example 7]
EC50: < 1 µM

C=C1CC2CCC(C1)N2S(=O)(=O)c1cc(C(=O)Nc2cc(F)c(F)c(F)c2)ccc1Cl [Example 17]
EC50: < 1 µM

O=S(=O)(c1cc(-c2ncc(-c3ccc(Br)c(F)c3)[nH]2)ccc1Cl)N1CCC2(COC2)C1 [Example 21]
EC50: 1 to 10 µM

O=S(=O)(c1cc(-c2ncc(-c3ccc(Br)c(F)c3)[nH]2)ccc1Cl)N1C2CC[C@@H]1C[C@@H](O)C2 [Example 2]
EC50: < 1 µM
